{
  "source": "patent US8404646B2",
  "about": "“Methods for preventing or treating mitochondrial permeability transition” (Cornell Research Foundation, Inc., priority 2003, dated 2013)",
  "key": {"[1]": {"assay": "Body weight and heart rate during the infarction/reperfusion experiment", "format": "in vivo, rat", "description": "Adult male […] rats (F344 strain, National Institute of Aging, maintained by Harian Sprague-Dawley Inc.), weighting between 285 and 425 gm, were used. Twenty-four rats (n=8/group) were randomly assigned to one of three groups: (1) Control group was given 0.4 ml of saline as an intra-peritoneal (IP) injection 30 minutes before the ligation of left anterior descending coronary artery, followed by same IP dose injection 5 minutes before reperfusion; (2) SS-31 group was treated with SS-31 (3 mg/kg dissolved in 0.4 ml of saline) as an IP injection 30 minutes before the ligation followed by same IP dose injection as maintenance 5 minutes before reperfusion; and (3) SS-20 group was treated with SS-20 (3 mg/kg dissolved in 0.4 ml of saline) as an IP injection 30 minutes before the ligation followed by same dose IP injection as maintenance just 5 minutes before reperfusion. Also, Sham-operated rats (n=3) were used to account for possible effects related to the surgical protocol. All procedures were performed in a blinded manner, with the groups assigned letters and their identities unknown to the operators. Likewise, the two independent investigators analyzing the data were blind to the treatment assignments.\nAfter anesthesia with ketamine (90 mg/kg IP) and xylazine (4 mg/kg IP), a tracheotomy was performed, and the rat was intubated with polyethylene tube and ventilated (Harvard Rodent Ventilator model 683) with room air and a tidal volume of 0.65 ml/100 gm of body weight at 90 breaths per minute. Body temperature was maintained at 37° C. by using a heated operating table. The internal jugular vein was surgically exposed and a polyethylene tube was inserted for Evans blue dye solution injection. Peripheral limb electrodes were inserted subcutaneously and electrocardiogram was monitored throughout the procedure.\nAn ECG was recorded continuously from a standard lead II (AC AMP 700) inserted into the limbs of all rats. The ECG was printed at 25 mm/second. The cardiac arrhythmias were monitored and assessed in accordance with the Lambeth Convention. The assessment was performed in a blinded manner using the original paper recordings. A validated score was used to quantify the severity of cardiac arrhythmias. The score consisted of six types: 0, no ventricular extrasystoles (VES), ventricular tachycardia (VT) or ventricular fibrillation (VF); 1=VES; 2=one to five episodes of VT (more than four coupled VES); 3=more than five episodes of VT and/or one VF; 4=two to five episodes of VF; 5=more than five episodes of VF.\nAll values are expressed as mean±standard error of mean (S.E.M.). Statistical analyses were performed using SPSS version 10. Differences among groups in body weight, heart rate, arrhythmia, area at risk as a percentage of the left ventricle, and area of infarction as a percentage of the area at risk were analyzed using ANOVA. If significant differences were detected, comparisons between the control group and the 2 treatment groups were conducted using the Mann-Whitney U-test. A two-tailed p<0.05 was regarded as significant."}, "[2]": {"system": "Caco-2 cells", "assay": "Confocal laser scanning microscopy of fluorescent analogs (uptake, subcellular distribution)", "format": "cell-based, human", "conditions": "for subcellular distribution of fluorescence: Caco-2, CLSM", "description": "The uptake of [Dmt^1]DALDA into Caco-2 cells was confirmed by confocal laser scanning microscopy (CLSM) using a fluorescent analog of [Dmt^1]DALDA (Dmt-D-Arg-Phe-dnsDap-NH2; where dnsDap=β-dansyl-1-α,β-diaminopropionic acid). Cells were grown as described above and were plated on (35 mm) glass bottom dishes (MatTek Corp., Ashland, Mass.) for 2 days. The medium was then removed and cells were incubated with 1 ml of HBSS containing 0.1 μM to 1.0 μM of the fluorescent peptide analog at 37° C. for 1 h. Cells were then washed three times with ice-cold HBSS and covered with 200 μl of PBS, and microscopy was performed within 10 min at room temperature using a Nikon confocal laser scanning microscope with a C-Apochromat 63×/1.2 W corr objective. Excitation was performed at 340 nm by means of a UV laser, and emission was measured at 520 nm. For optical sectioning in z-direction, 5-10 frames with 2.0 μm were made.\nTo examine the subcellular distribution of [Dmt^1]DALDA, the fluorescent analog, [Dmt^1, AtnDap^4]DALDA (Dmt-D-Arg-Phe-atnDap-NH2; where atn=β-anthraniloyl-1-α,β-diamino-propionic acid), was prepared. The analog contained β-anthraniloyl-1-α,β-diaminopropionic acid in place of the lysine reside at position 4. The cells were grown as described in Example 1 and were plated on (35 mm) glass bottom dishes (MatTek Corp., Ashland, Mass.) for 2 days. The medium was then removed and cells were incubated with 1 ml of HBSS containing 0.1 μM of [Dmt^1, AtnDap^4]DALDA at 37° C. for 15 min to 1 h.\nCells were also incubated with tetramethylrhodamine methyl ester (TMRM, 25 nM), a dye for staining mitochondria, for 15 min at 37° C. Cells were then washed three times with ice-cold HBSS and covered with 200 μl of PBS, and microscopy was performed within 10 min at room temperature using a Nikon confocal laser scanning microscope with a C-Apochromat 63×/1.2 W corr objective.\nFor [Dmt^1, AtnDap^4]DALDA, excitation was performed at 350 nm by means of a UV laser, and emission was measured at 520 nm. For TMRM, excitation was performed at 536 nm, and emission was measured at 560 nm."}, "[3]": {"system": "isolated mouse liver mitochondria", "assay": "Uptake into isolated mitochondria (fluorescence quenching, radioactivity in pellet)", "format": "in vitro ADME", "description": "(FIG. 1A) Mitochondrial uptake of SS-19 was determined using fluorescence spectrophotometry (ex/em=320/420 nm). […] Pretreatment of mitochondria with FCCP (1.5 μM) reduced quenching by <20% (black line). […] Uptake was stopped by centrifugation (16000×g) for 5 min at 4° C., and radioactivity determined in the pellet. […] Data are shown as mean±s.e.; n=3. *, P<0.05 by Student's t-test. […] Black line, TMRM; red line, SS-19.\nTo isolate mitochondria from mouse liver, mice were sacrificed by decapitation. The liver was removed and rapidly placed into chilled liver homogenization medium. The liver was finely minced using scissors and then homogenized by hand using a glass homogenizer.\nThe homogenate was centrifuged for 10 min at 1000×g at 4° C. The supernatant was aspirated and transferred to polycarbonate tubes and centrifuged again for 10 min. at 3000×g, 4° C. The resulting supernatant was removed, and the fatty lipids on the side-wall of the tube were carefully wiped off.\nThe pellet was resuspended in liver homogenate medium and the homogenization repeated twice. The final purified mitochondrial pellet was resuspended in medium. Protein concentration in the mitochondrial preparation was determined by the Bradford procedure.\nApproximately 1.5 mg mitochondria in 400 μl buffer was incubated with [^3H][Dmt^1]DALDA for 5-30 min at 37° C. The mitochondria were then centrifuged down and the amount of radioactivity determined in the mitochondrial fraction and buffer fraction. […] Thus [Dmt^1]DALDA is concentrated in mitochondria.\nThus uptake of [Dmt^1, AtnDap^4]DALDA was not potential-dependent.\nTo confirm that the mitochondrial targeting was not an artifact of the fluorophore, we also examined mitochondrial uptake of [^3H][Dmt^1]DALDA. Isolated mitochondria were incubated with [^3H][Dmt^1]DALDA and radioactivity determined in the mitochondrial pellet and supernatant.\nWe next examined the effect of mitochondrial swelling on the accumulation of [Dmt^1, AtnDap^4]DALDA in mitochondria by using alamethicin to induce swelling and rupture of the outer membrane. […] Thus, [Dmt^1]DALDA is associated with mitochondrial membranes."}},
  "note": "Non-standard residues stand in square brackets, D forms with d. Residues, ends and D or L forms follow the SMILES beside them. *: point of attachment. Dansyl = CN(C)c1cccc2c(S(=O)(=O)*)cccc12; Dmt = Cc1cc(O)cc(C)c1C[C@H](N)C(=O)O; Dap = NC[C@H](N)C(=O)O",
  "data": [
    {"molecule": "N=C(N)NCCC[C@@H](NC(=O)[C@@H](N)Cc1ccccc1)C(=O)N[C@@H](Cc1ccccc1)C(=O)N[C@@H](CCCCN)C(N)=O", "note": "[SS-20, Phe-D-Arg-Phe-Lys-NH2] (H-F[dR]FK-NH2; N-terminus assumed)", "values": [
      {"measurement": "Heart Rate Baseline", "setting": "[1]; Baseline", "value": "255 ± 5"},
      {"measurement": "Heart Rate Ischemia", "setting": "[1]; first column", "value": "191 ± 17"},
      {"measurement": "Heart Rate Ischemia", "setting": "[1]; second column", "value": "184 ± 15"},
      {"measurement": "Heart Rate Open chest", "setting": "[1]; Open chest", "value": "211 ± 10"},
      {"measurement": "Heart Rate Reperfusion", "setting": "[1]; first column", "value": "182 ± 16"},
      {"measurement": "Heart Rate Reperfusion", "setting": "[1]; second column", "value": "183 ± 12"}
    ]},
    {"molecule": "Cc1cc(O)cc(C)c1C[C@H](N)C(=O)N[C@H](CCCNC(=N)N)C(=O)N[C@@H](Cc1ccccc1)C(=O)N[C@@H](CNS(=O)(=O)c1cccc2c(N(C)C)cccc12)C(N)=O", "note": "[[Dmt^1,DnsDap^4]DALDA, Dmt-D-Arg-Phe-dnsDap-NH2] (H-[Dmt][dR]F[Dap](Dansyl)-NH2; N-terminus assumed)", "values": [
      {"measurement": "uptake of fluorescent peptide into Caco-2 cells (CLSM)", "setting": "[2]; 0.1 μM, 1 h, 37° C.", "value": "confirmed the uptake"},
      {"measurement": "subcellular distribution of fluorescence", "setting": "[2]", "value": "diffuse throughout the cytoplasm but was completely excluded from the nucleus"}
    ]},
    {"molecule": "Dmt-D-Arg-Phe-atnDap-NH2 [SS-19]", "values": [
      {"measurement": "incubation time after which uptake into Caco-2 cells was shown", "setting": "[2]; 0.1 μM, 37° C.", "value": 15, "unit": "min"},
      {"measurement": "subcellular distribution of fluorescence", "setting": "[2]", "value": "completely excluded from the nucleus"},
      {"measurement": "distribution to mitochondria (overlap with TMRM)", "setting": "[2]; Caco-2, TMRM 25 nM", "value": "demonstrated by the overlap"},
      {"measurement": "reduction of uptake (fluorescence quenching) by FCCP pretreatment", "setting": "[3]; FCCP 1.5 μM, mitochondria 0.35 mg/ml", "value": "< 20", "unit": "%"},
      {"measurement": "effect of alamethicin-induced mitochondrial swelling on uptake", "setting": "[3]", "value": "retained to a large extent"},
      {"measurement": "effect of alamethicin-induced mitochondrial swelling on uptake", "setting": "[3]; listed as [Dmt^1, AtnDap^4]DALDA", "value": "only partially reversed"},
      {"measurement": "uptake on addition of mitochondria (fluorescence)", "setting": "[3]; ex/em 320/420 nm", "value": "immediate quenching"}
    ]}
  ]
}
